Data published in article PMC4977651, “Molecular features of biguanides required for targeting of mitochondrial respiratory complex I and activation of AMP-kinase” (BMC Biology, 2016).
pIC50: −log10 of the molar value. Several values for one entry are separate records, joined by “and”; a condition that tells them apart may be missing. Equal values may be shown once. Read-outs that look alike come from different tables or passages of the source.

Legend:
[1] = molecular target: bovine heart mitochondrial membranes (complex I) (Bos taurus, UniProt P03887+P03898+P17694+P42026); assay: NADH:O2 oxidoreduction by bovine heart mitochondrial membranes (complexes I-III-IV); assay type: biochemical
bovine heart mitochondrial membranes (complex I), sequence (P42026 38-216): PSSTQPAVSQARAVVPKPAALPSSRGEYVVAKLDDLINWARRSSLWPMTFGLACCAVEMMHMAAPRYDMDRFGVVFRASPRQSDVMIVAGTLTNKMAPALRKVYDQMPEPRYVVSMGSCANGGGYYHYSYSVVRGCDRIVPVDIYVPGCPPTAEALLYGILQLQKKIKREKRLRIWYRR
bovine heart mitochondrial membranes (complex I), sequence (P17694 34-463): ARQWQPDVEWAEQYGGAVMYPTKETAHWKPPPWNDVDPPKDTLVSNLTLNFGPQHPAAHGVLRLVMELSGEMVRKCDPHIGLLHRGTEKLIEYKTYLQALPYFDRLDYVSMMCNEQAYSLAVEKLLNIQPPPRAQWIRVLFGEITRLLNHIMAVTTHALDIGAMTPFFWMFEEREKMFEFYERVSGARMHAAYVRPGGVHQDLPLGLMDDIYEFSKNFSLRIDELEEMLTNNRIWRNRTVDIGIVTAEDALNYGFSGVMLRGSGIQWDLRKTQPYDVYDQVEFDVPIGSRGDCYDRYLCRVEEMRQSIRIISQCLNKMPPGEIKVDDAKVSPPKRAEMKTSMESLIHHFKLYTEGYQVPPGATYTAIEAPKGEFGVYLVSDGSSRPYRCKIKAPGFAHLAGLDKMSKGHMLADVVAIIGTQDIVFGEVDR
bovine heart mitochondrial membranes (complex I), sequence (P03887 whole entry): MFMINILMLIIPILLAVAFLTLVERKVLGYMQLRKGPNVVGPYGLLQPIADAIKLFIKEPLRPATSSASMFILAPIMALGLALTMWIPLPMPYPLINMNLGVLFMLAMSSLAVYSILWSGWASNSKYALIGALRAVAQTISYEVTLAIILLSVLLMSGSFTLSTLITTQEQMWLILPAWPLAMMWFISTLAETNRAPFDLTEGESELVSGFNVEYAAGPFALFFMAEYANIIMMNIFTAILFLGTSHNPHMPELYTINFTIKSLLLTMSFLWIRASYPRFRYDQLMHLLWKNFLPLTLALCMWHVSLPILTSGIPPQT
bovine heart mitochondrial membranes (complex I), sequence (P03898 whole entry): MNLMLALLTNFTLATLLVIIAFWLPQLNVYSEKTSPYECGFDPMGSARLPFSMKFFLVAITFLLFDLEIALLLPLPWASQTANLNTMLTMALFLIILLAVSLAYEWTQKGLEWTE
Procedure: (§1) Complex I and mitochondrial membranes were prepared from Bos taurus (bovine) heart. Intact mitochondria were isolated from rat liver and mouse heart and liver. Membranes were prepared from mouse heart mitochondria by 5 s bursts of sonication at 4 °C and collected by centrifugation (75,000 × g, 1 h).
(§2) Assays were performed at 32 °C in a SpectraMax 96-well plate reader. NADH:decylubiquinone oxidoreduction by complex I at 0.5 μg mL^−1 was measured in 20 mM Tris-HCl (pH 7.2), 0.15 % soy bean asolectin (Avanti Polar Lipids), and 0.15 % 3-((3-cholamidopropyl)dimethylammonium)-1-propanesulfonate (CHAPS, Merck Chemicals Ltd), with 200 μM decylubiquinone and 200 μM NADH, and monitored using ε340–380(NADH) = 4.81 mM^−1 cm^−1 [23]. Catalysis was initiated by addition of NADH and maximal rates determined by linear regression. NADH:O2 oxidoreduction by membranes was measured similarly but using 5 μg mL^−1 membranes in 10 mM Tris-HCl (pH 7.4) and 250 mM sucrose using 200 μM NADH and supplemented with 0.15 mM horse heart cytochrome c (Sigma-Aldrich Ltd.). Succinate:O2 oxidoreduction was measured using 40 μg mL^−1 membranes in 5 mM succinate in 10 mM Tris-HCl (pH 7.4) as described previously. Control experiments included NaCl (to match the ionic strength) or DMSO, as appropriate.
(§3) Experimental values are reported as mean averages ± standard deviation (SD) of technical replicates for large sample sizes and mean averages ± standard error of the mean (SEM) of technical replicates for small sample sizes. Data were analyzed by the unpaired two-tailed Student’s t test. IC50 values were determined using the standard dose-effect relationship (activity (%) = 100 × IC50 / (IC50 + [inhibitor]^m) with the Hill Slope (m) set to unity for purified complex I) and are reported with 95 % confidence intervals.

[2] = molecular target: mouse heart mitochondrial membranes (complex I) (Mus musculus, UniProt P03888+P03899+Q91WD5+Q9DC70); assay: NADH:O2 oxidoreduction by mouse heart mitochondrial membranes; assay type: biochemical; conditions: for LogIC50 (best fit value): log of IC50 in mM
mouse heart mitochondrial membranes (complex I), sequence (P03899 whole entry): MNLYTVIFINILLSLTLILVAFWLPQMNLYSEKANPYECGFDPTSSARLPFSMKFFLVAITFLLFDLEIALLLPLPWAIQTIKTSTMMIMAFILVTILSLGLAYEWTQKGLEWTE
mouse heart mitochondrial membranes (complex I), sequence (P03888 whole entry): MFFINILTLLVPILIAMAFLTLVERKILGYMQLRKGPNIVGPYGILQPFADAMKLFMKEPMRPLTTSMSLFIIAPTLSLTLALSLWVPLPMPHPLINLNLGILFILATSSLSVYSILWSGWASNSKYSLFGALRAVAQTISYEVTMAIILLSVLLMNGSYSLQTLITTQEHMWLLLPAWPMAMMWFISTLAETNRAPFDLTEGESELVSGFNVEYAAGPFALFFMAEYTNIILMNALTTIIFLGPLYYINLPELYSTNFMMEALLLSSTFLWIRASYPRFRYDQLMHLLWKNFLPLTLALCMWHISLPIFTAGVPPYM
mouse heart mitochondrial membranes (complex I), sequence (Q9DC70 36-224): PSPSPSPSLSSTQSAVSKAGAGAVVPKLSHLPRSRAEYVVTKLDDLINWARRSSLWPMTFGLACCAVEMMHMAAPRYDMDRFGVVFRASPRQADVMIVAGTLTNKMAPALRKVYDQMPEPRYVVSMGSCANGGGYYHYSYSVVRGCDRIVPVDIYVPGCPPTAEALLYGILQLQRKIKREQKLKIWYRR
mouse heart mitochondrial membranes (complex I), sequence (Q91WD5 34-463): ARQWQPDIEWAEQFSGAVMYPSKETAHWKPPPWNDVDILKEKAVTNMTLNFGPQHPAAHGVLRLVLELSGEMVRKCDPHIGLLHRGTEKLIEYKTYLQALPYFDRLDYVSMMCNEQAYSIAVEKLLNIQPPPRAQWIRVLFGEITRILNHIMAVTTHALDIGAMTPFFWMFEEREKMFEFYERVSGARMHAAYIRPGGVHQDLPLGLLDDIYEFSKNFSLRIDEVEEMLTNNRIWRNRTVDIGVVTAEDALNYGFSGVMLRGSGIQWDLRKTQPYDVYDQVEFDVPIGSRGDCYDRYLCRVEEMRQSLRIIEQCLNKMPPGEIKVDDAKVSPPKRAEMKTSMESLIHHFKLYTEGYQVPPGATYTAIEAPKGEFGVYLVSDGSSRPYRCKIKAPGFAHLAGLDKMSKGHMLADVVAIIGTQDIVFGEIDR
Procedure: as §1, §2, §3

permeabilized MDBK cells = assay: ADP-stimulated rotenone-sensitive OCR in permeabilized MDBK cells; assay type: cell-based, Bos taurus; parameters: rotenone sensitive OCR after ADP stimulation, average / rotenone sensitive OCR after ADP stimulation: unit not given here; conditions: for rotenone sensitive OCR after ADP stimulation, % of control, average / rotenone sensitive OCR after ADP stimulation, average / rotenone sensitive OCR after ADP stimulation / rotenone sensitive OCR after ADP stimulation, % of control: MDBK permeabilised cells; for rotenone sensitive OCR after ADP stimulation, % of control, average / rotenone sensitive OCR after ADP stimulation, average: average of replicates; for rotenone sensitive OCR after ADP stimulation / rotenone sensitive OCR after ADP stimulation, % of control: individual replicates
Procedure: For permeabilized cell experiments, cells were seeded into XF96 plates at 0.9–1.1 × 10^4 per well and incubated for 48 h at 37 °C in 5 % CO2. Then, the growth medium was exchanged for assay buffer containing 3 nM plasma membrane permeabilizer ‘PMP’ (Seahorse Biosciences Inc.), 10 mM glutamate, 10 mM malate, 220 mM mannitol, 70 mM sucrose, 10 mM KH2PO4, 5 mM MgCl2, 1 mM EGTA, 0.2 % fatty acid-free bovine serum albumin (BSA), and 2 mM HEPES (pH 7.4 at 37 °C). […] The biguanides were allowed to accumulate for 30 min, then respiration was […] by the addition of 4 mM ADP. Rotenone was added (2 μM) at the end of the experiment.
Rotenone-sensitive OCRs were calculated by subtracting the rotenone-insensitive rates (determined at the end of the experiment). OCRs were normalized by dividing by the OCR recorded immediately prior to the addition of biguanide. For rate of uptake calculations, the OCRs at time points after biguanide addition were divided by the OCRs at the same time points in control experiments. Data from wells with failed port injections were excluded from the analyses. The respiratory control ratio (RCR) values (state III versus state IV respiration) were ~11 and ~6 for permeabilized MDBK and 143B cells, respectively.

rat liver mitochondria = assay: ADP-stimulated rotenone-sensitive OCR in isolated rat liver mitochondria; assay type: biochemical; parameters: rotenone sensitive OCR after ADP stimulation, individual replicates / rotenone sensitive OCR after ADP stimulation, average: unit not given here; conditions: for rotenone sensitive OCR after ADP stimulation, % of control, average / rotenone sensitive OCR after ADP stimulation, average: average of replicates; for rotenone sensitive OCR after ADP stimulation, % of control, individual replicates / rotenone sensitive OCR after ADP stimulation, individual replicates: replicate 1-5
Procedure: as §1
Isolated mitochondria were monitored using a Seahorse XF96 extracellular flux analyzer at 32 °C. Mouse heart mitochondria, and mouse and rat liver mitochondria were plated into XF96 plates at 4 and 16–20 μg per well, respectively, in 220 mM mannitol, 70 mM sucrose, 10 mM KH2PO4, 5 mM MgCl2, 1 mM EGTA, 0.2 % fatty acid-free BSA, and 2 mM HEPES (pH 7.4 at 37 °C) with 10 mM glutamate and 10 mM malate and adhered by centrifugation (2000 × g, 20 min, 4 °C). The medium was supplemented with a further 5 mM glutamate and 5 mM malate and the mitochondria incubated for 15 min. Then two baseline readings were taken before the biguanides were added at IC50/5. Biguanides were allowed to accumulate for 15–20 min before respiration was […] by the addition of 4 mM ADP. Rotenone (2 μM) was added at the end of the experiment. Data from wells with failed port injections were excluded from the analyses. The RCR values (state III versus state IV respiration) were 3.4, 4.8, and 4.6 for mouse heart, rat liver, and mouse liver, respectively.

[3] = log of concentration in mM; sample given as Bovine heart mitochondrial membranes; Prism variable slope fit, Bottom 0, Top 100
[4] = sample given as Bovine heart mitochondrial membranes; Prism variable slope fit, Bottom 0, Top 100

| Structure (SMILES) | LogIC50 (best fit value) [1, 3] | HillSlope (best fit value) [1, 4] | HillSlope (best fit value) ([2]; Prism variable slope fit) | LogIC50 (best fit value) ([2]; Prism variable slope fit) | rotenone sensitive OCR after ADP stimulation, % of control, average (permeabilized MDBK cells) | rotenone sensitive OCR after ADP stimulation, average (permeabilized MDBK cells) | rotenone sensitive OCR after ADP stimulation, % of control, average (permeabilized MDBK cells; biguanide at IC50/5) | rotenone sensitive OCR after ADP stimulation, average (permeabilized MDBK cells; biguanide at IC50/5) | rotenone sensitive OCR after ADP stimulation (permeabilized MDBK cells; biguanide at IC50/5) | rotenone sensitive OCR after ADP stimulation, % of control (permeabilized MDBK cells; biguanide at IC50/5) | rotenone sensitive OCR after ADP stimulation, % of control, average (rat liver mitochondria) | rotenone sensitive OCR after ADP stimulation, average (rat liver mitochondria) | rotenone sensitive OCR after ADP stimulation, % of control, individual replicates (rat liver mitochondria) | rotenone sensitive OCR after ADP stimulation, individual replicates (rat liver mitochondria) | further results |
| --- | --- | --- | --- | --- | --- | --- | --- | --- | --- | --- | --- | --- | --- | --- | --- |
| N=C(N)NC(N)=Nc1ccccc1 [compound 2, phenyl biguanide] | -0.3757 | -0.7595 | -1.093 | -0.05416 | 101.81 % of control | 286.92 | 101.81 % of control | 286.92 | 411.58 and 226.55 and 268.24 and 253.43 and 274.79 | 146.05 % of control and 80.39 % of control and 95.18 % of control and 89.93 % of control and 97.51 % of control | 93.19 % of control | 25.55 | 95.39 % of control and 93.60 % of control and 90.74 % of control and 93.05 % of control | 26.15 and 25.66 and 24.88 and 25.51 | pIC50 ([1]; read-out: IC50 (best fit value); sample given as Bovine heart mitochondrial membranes; Prism log(inhibitor) vs. response variable slope fit (four parameters), Bottom 0, Top 100): 3.38; pIC50 ([2]; read-out: IC50 (best fit value), Prism variable slope fit, Bottom 0, Top 100): 3.05 |
| CC(C)N=C(N)N=C(N)N [compound 4, 1-(diaminomethylidene)-2-(propan-2-yl)guanidine] | 1.46 | -1.156 | -1.082 | 1.478 | 3.16 % of control | 8.89 | 3.16 % of control | 8.89 | 14.20 and 41.21 and 15.97 and 1.99 and -24.18 and 20.17 and 9.00 and -7.21 | 5.04 % of control and 14.62 % of control and 5.67 % of control and 0.71 % of control and -8.58 % of control and 7.16 % of control and 3.19 % of control and -2.56 % of control | 8.94 % of control | 2.45 | 10.19 % of control and 7.26 % of control and 8.19 % of control and 10.12 % of control | 2.79 and 1.99 and 2.25 and 2.77 | remaining activity at 620 µM ([1]; bovine heart mitochondrial membranes; inhibitor 0.62 mM; read-out: average % (rate, % of no-inhibitor control)): 96.7%; remaining activity at 1560 µM ([1]; bovine heart mitochondrial membranes; inhibitor 1.56 mM; read-out: average % (rate, % of no-inhibitor control)): 95.7%; remaining activity at 3120 µM ([1]; bovine heart mitochondrial membranes; inhibitor 3.12 mM; read-out: average % (rate, % of no-inhibitor control)): 92.6%; remaining activity at 6250 µM ([1]; bovine heart mitochondrial membranes; inhibitor 6.25 mM; read-out: average % (rate, % of no-inhibitor control)): 84.6%; remaining activity at 12500 µM ([1]; bovine heart mitochondrial membranes; inhibitor 12.50 mM; read-out: average % (rate, % of no-inhibitor control)): 72.6%; remaining activity at 25000 µM ([1]; bovine heart mitochondrial membranes; inhibitor 25.00 mM; read-out: average % (rate, % of no-inhibitor control)): 56.6%; remaining activity at 50000 µM ([1]; bovine heart mitochondrial membranes; inhibitor 50.00 mM; read-out: average % (rate, % of no-inhibitor control)): 32.5%; pIC50 ([1]; sample given as Bovine heart mitochondrial membranes; Prism log(inhibitor) vs. response variable slope fit (four parameters), Bottom 0, Top 100; read-out: IC50 (best fit value)): 1.54; pIC50 ([2]; Prism variable slope fit, Bottom 0, Top 100, read-out: IC50 (best fit value)): 1.52; remaining activity at 620 µM ([2]; inhibitor 0.62 mM, read-out: average % (rate, % of no-inhibitor control)): 103%; remaining activity at 1320 µM ([2]; inhibitor 1.32 mM, read-out: average % (rate, % of no-inhibitor control)): 99.1%; remaining activity at 3120 µM ([2]; inhibitor 3.12 mM, read-out: average % (rate, % of no-inhibitor control)): 93.2%; remaining activity at 6250 µM ([2]; inhibitor 6.25 mM, read-out: average % (rate, % of no-inhibitor control)): 80.8%; remaining activity at 15600 µM ([2]; inhibitor 15.60 mM, read-out: average % (rate, % of no-inhibitor control)): 67.2%; remaining activity at 62500 µM ([2]; inhibitor 62.50 mM, read-out: average % (rate, % of no-inhibitor control)): 30.7%; inhibition of OCR (permeabilized MDBK cells; MDBK cells, 30 min, data used for Fig. 4c matrix concentration estimate): exceeded 90% |
